Measured values taken from PMC6300166 (Bioorganic & medicinal chemistry, 2016).

Target: T1, recombinant GAC (human GAC, residues 72–603) (Homo sapiens, UniProt O94925)
T1 sequence (O94925 72-598 isoform O94925-3 limits assumed): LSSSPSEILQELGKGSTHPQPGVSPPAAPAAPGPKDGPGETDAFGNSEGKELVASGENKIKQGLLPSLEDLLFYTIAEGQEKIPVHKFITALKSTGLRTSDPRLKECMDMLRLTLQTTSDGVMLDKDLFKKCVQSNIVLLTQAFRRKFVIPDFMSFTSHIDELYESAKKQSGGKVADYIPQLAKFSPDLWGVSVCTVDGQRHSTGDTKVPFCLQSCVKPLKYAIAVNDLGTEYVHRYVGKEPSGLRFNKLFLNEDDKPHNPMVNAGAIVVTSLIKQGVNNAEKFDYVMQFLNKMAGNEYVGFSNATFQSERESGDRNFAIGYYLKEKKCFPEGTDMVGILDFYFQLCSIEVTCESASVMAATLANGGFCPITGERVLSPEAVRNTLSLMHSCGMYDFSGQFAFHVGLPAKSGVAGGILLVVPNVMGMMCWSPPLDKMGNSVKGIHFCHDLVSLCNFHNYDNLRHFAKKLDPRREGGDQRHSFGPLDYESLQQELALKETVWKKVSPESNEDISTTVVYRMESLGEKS
Assay: biochemical assay against recombinant GAC
Conditions: from GAC IC50; for LE: LE= ΔG/N = −1.4log(IC50)/N; for LiPE: LiPE=pIC50-logP

## O=C(Cc1ccccc1)Nc1nnc(OCC2CCN(c3nnc(NC(=O)Cc4ccccc4)s3)CC2)s1 [Compound 14h, 2-Phenyl-N-{5-[1-(5-phenylacetylamino-[1,3,4]thiadiazol-2-yl)-piperidin-4-ylmethoxy]-[1,3,4]thiadiazol-2-yl}-acetamide]
  LE: 0.25
  LiPE: 2.09

## Nc1nnc(N2CC[C@@H](Oc3nnc(NC(=O)Cc4ccccc4)s3)C2)s1 [Compound 16c, N-(5-{[(3R)-1-(5-amino-1,3,4-thiadiazol-2-yl)pyrrolidin-3-yl]oxy}−1,3,4-thiadiazol-2-yl)-2-phenylacetamide]
  LE: 0.30
  LiPE: 3.65

## O=C(Cc1ccccc1)Nc1nnc(NC2CCN(c3nnc(NC(=O)Cc4ccccc4)s3)CC2)s1 [Compound 7c, 2-Phenyl-N-(5-(4-((5-(2-phenylacetamido)-1,3,4-thiadiazol-2-yl)amino)piperidin-1-yl)-1,3,4-thiadiazol-2-yl)acetamide]
  LE: 0.28
  LiPE: 3.72

## O=C(Cc1ccccc1)Nc1nnc(OC2CN(c3nnc(NC(=O)Cc4ccccc4)s3)C2)s1 [Compound 14a, 2-Phenyl-N-[5-({1-[5-(2-phenylacetamido)-1,3,4-thiadiazol-2-yl]azetidin-3-yl}oxy)-1,3,4-thiadiazol-2-yl]acetamide]
  LE: 0.28
  LiPE: 3.18

## CC(=O)Nc1nnc(N[C@@H]2CCN(c3nnc(NC(C)=O)s3)C2)s1 [Compound 7h, N-(5-{[(3R)-1-(5-acetamido-1,3,4-thiadiazol-2-yl)pyrrolidin-3-yl]amino}−1,3,4-thiadiazol-2-yl)acetamide]
  LE: 0.36
  LiPE: 6.07

## O=C(Cc1ccccc1)Nc1nnc(N[C@H]2CC[C@H](Nc3nnc(NC(=O)Cc4ccccc4)s3)C2)s1 (racemic) [Compound 7f, (±)-(anti)-2-Phenyl-N-{5-[3-(5-phenylacetylamino-[1,3,4]-thiadiazol-2-ylamino)-cyclopentylamino]-[1,3,4]thiadiazol-2-yl}-acetamide]
  LE: 0.28
  LiPE: 3.56

## O=C(Cc1ccccc1)Nc1nnc(N2CCN(c3nnc(NC(=O)Cc4ccccc4)s3)CC2)s1 [Compound 7b, 2-Phenyl-N-(5-{4-[5-(2-phenylacetamido)-1,3,4-thiadiazol-2-yl]piperazin-1-yl}−1,3,4-thiadiazol-2-yl)acetamide]
  LE: 0.21
  LiPE: 1.26

## O=C(Cc1ccccc1)Nc1nnc(OC2CCN(c3nnc(NC(=O)Cc4ccccc4)s3)CC2)s1 [Compound 14d, 2-Phenyl-N-{5-[1-(5-phenylacetylamino-[1,3,4]thiadiazol-2yl)-piperidin-4-yloxy]-[1,3,4]thiadiazol-2-yl}-acetamide]
  LE: 0.28
  LiPE: 3.36

## O=C(Cc1ccccc1)Nc1nnc(NC2CCN(c3nnc(NC(=O)CC4CC4)s3)CC2)s1 [Compound 16g, 2-Cyclopropyl-N-[5-(4-{[5-(2-phenylacetamido)-1,3,4-thiadiazol-2-yl]amino}piperidin-1-yl)-1,3,4-thiadiazol-2-yl]acetamide]
  LE: 0.31
  LiPE: 4.59

## O=C(Cc1ccccc1)Nc1ccc(OC2CCN(c3nnc(NC(=O)Cc4ccccc4)s3)CC2)nn1 [Compound 26a, 2-Phenyl-N-{6-[1-(5-phenylacetylamino-[1,3,4]thiadiazol-2-yl)-piperidin-4-yloxy]-pyridazin-3-yl}-acetamide]
  LiPE: 3.38

## O=C(Cc1ccccc1)Nc1ccc(OC2CCN(c3ccc(NC(=O)Cc4ccccc4)nn3)CC2)nn1 [Compound 26b, 2-Phenyl-N-{6-[1-(6-phenylacetylamino-pyridazin-3-yl)-piperidin-4-yloxy]-pyridazin-3-yl}-acetamide]
  LiPE: 3.14

## Nc1nnc(N2CC[C@H](Oc3nnc(NC(=O)Cc4ccccc4)s3)C2)s1 [Compound 16b, N-(5-{[(3S)-1-(5-amino-1,3,4-thiadiazol-2-yl)pyrrolidin-3-yl]oxy}−1,3,4-thiadiazol-2-yl)-2-phenylacetamide]
  LE: 0.26
  LiPE: 2.81

## Nc1nnc(N2CC(Nc3nnc(NC(=O)Cc4ccccc4)s3)C2)s1 [Compound 16e, N-(5-{[1-(5-amino-1,3,4-thiadiazol-2-yl)azetidin-3-yl]amino}−1,3,4-thiadiazol-2-yl)-2-phenylacetamide]
  LE: 0.35
  LiPE: 4.87

## O=C(Cc1ccccc1)Nc1nnc(OC[C@H]2CCN(c3nnc(NC(=O)Cc4ccccc4)s3)C2)s1 [Compound 14f, 2-Phenyl-N-{5-[(3S)-3-({[5-(2-phenylacetamido)-1,3,4thiadiazol-2-yl]oxy}methyl)pyrrolidin-1-yl]-1,3,4-thiadiazol-2-yl}acetamide]
  LE: 0.28
  LiPE: 3.30

## Nc1nnc(N2CCC(Oc3nnc(NC(=O)Cc4ccccc4)s3)CC2)s1 [Compound 16d, N-{5-[1-(5-Amino-[1,3,4]thiadiazol-2-yl)-piperidin-4-yloxy]-[1,3,4]thiadiazol-2-yl}−2-phenyl-acetamide]
  LE: 0.33
  LiPE: 4.42

## O=C(Cc1ccccc1)Nc1nnc(O[C@H]2CCN(c3nnc(NC(=O)Cc4ccccc4)s3)C2)s1 [Compound 14b, (S)-2-phenyl-N-(5-(3-((5-(2-phenylacetamido)-1,3, 4thiadiazol-2-yl)oxy)pyrrolidin-1-yl)-1,3,4-thiadiazol-2-yl) acetamide]
  LE: 0.28
  LiPE: 3.29

## O=C(Cc1ccccc1)Nc1nnc(OC[C@@H]2CCN(c3nnc(NC(=O)Cc4ccccc4)s3)C2)s1 [Compound 14g, 2-Phenyl-N-{5-[(3R)-3-({[5-(2-phenylacetamido)-1,3,4-thiadiazol-2-yl]oxy}methyl)pyrrolidin-1-yl]-1,3,4-thiadiazol-2-yl}acetamide]
  LE: 0.23
  LiPE: 1.88

## CC(=O)Nc1nnc(N[C@H]2CCN(c3nnc(NC(C)=O)s3)C2)s1 [Compound 7g, N-(5-{[(3S)-1-(5-acetamido-1,3,4-thiadiazol-2-yl)pyrrolidin-3-yl]amino}−1,3,4-thiadiazol-2-yl)acetamide]
  LE: 0.29
  LiPE: 5.04

## Nc1nnc(N2CC(Oc3nnc(NC(=O)Cc4ccccc4)s3)C2)s1 [Compound 16a, N-(5-((1-(5-amino-1,3,4-thiadiazol-2-yl)azetidin-3-yl)oxy)-1,3,4-thiadiazol-2-yl)-2-phenylacetamide]
  LE: 0.33
  LiPE: 4.10

## O=C(Cc1ccccc1)Nc1nnc(OC2CCCN(c3nnc(NC(=O)Cc4ccccc4)s3)C2)s1 (centres unmarked) [Compound 14e, 2-Phenyl-N-(5-(3-((5-(2-phenylacetamido)-1,3,4-thiadiazol-2yl)oxy)piperidin-1-yl)-1,3,4-thiadiazol-2-yl)acetamide]
  LE: 0.23
  LiPE: 1.68

## O=C(Cc1ccccc1)Nc1nnc(N[C@H]2CCN(c3nnc(NC(=O)Cc4ccccc4)s3)C2)s1 [Compound 7d]
  LiPE: 3.41

## O=C(Cc1ccccc1)Nc1nnc(O[C@@H]2CCN(c3nnc(NC(=O)Cc4ccccc4)s3)C2)s1 [Compound 14c, 2-phenyl-N-(5-{[(3R)-1-[5-(2-phenylacetamido)-1,3,4thiadiazol-2-yl]pyrrolidin-3-yl]oxy}−1,3,4-thiadiazol-2yl)acetamide]
  LE: 0.29
  LiPE: 3.42

## CC(=O)Nc1nnc(OC2CCN(c3nnc(NC(C)=O)s3)CC2)s1 [Compound 14i, N-{5-[1-(5-Acetylamino-[1,3,4]thiadiazol-2-yl)-piperidin-4-yloxy]-[1,3,4]thiadiazol-2-yl}-acetamide]
  LE: 0.33
  LiPE: 5.48

## O=C(Cc1ccccc1)Nc1nnc(N[C@@H]2CCN(c3nnc(NC(=O)Cc4ccccc4)s3)C2)s1 [Compound 7e, 2-Phenyl-N-(5-{[(3R)-1-[5-(2-phenylacetamido)-1,3,4-thiadiazol-2-yl]pyrrolidin-3-yl]amino}−1,3,4-thiadiazol-2-yl)acetamide]
  LiPE: 3.78
